Laboratory results from the supplement of paper PMC10307832.

Legend:
Assay in all cases: relative viability (nuclei count vs DMSO), 5 days (fraction); higher = more cells survive
BGJ398 + Luminespib = compound: CCN1CCN(c2ccc(Nc3cc(N(C)C(=O)Nc4c(Cl)c(OC)cc(OC)c4Cl)ncn3)cc2)CC1 [BGJ398] + CCNC(=O)c1noc(-c2cc(C(C)C)c(O)cc2O)c1-c1ccc(CN2CCOCC2)cc1 [Luminespib] (partner 0.01 µM)
In short: (§1)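 For relative viability, nuclei counts in treated wells were divided by those in vehicle wells. Lung cancer cell lines had been pin-tool dosed in 1536-well plates the day after seeding and cultured for 5 days, then fixed and stained in one step (final 0.05% Triton X-100, 1% formaldehyde, 1 ug/ml Hoechst) and imaged at 4×. Doses were one drug alone or a fixed anchor-drug dose plus five library-drug doses (not always all listed) in √10 steps, and values are duplicate-plate medians.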

[1] = compound: C1=CC2=NC=CN=C2C=C1/C=C/3\C(=O)NC(=O)S3 + O=C(CCCCCCC(=O)Nc1ccccc1)NO [Vorinostat] (partner 1 µM)
In short: as §1

BGJ398 + Olaparib = compound: CCN1CCN(c2ccc(Nc3cc(N(C)C(=O)Nc4c(Cl)c(OC)cc(OC)c4Cl)ncn3)cc2)CC1 [BGJ398] + O=C(c1cc(Cc2n[nH]c(=O)c3ccccc23)ccc1F)N1CCN(C(=O)C2CC2)CC1 [Olaparib] (partner 8 µM)
In short: as §1

BGJ398 + Tozasertib = compound: CCN1CCN(c2ccc(Nc3cc(N(C)C(=O)Nc4c(Cl)c(OC)cc(OC)c4Cl)ncn3)cc2)CC1 [BGJ398] + Cc1cc(Nc2cc(N3CCN(C)CC3)nc(Sc3ccc(NC(=O)C4CC4)cc3)n2)n[nH]1 [Tozasertib] (partner 0.1 µM)
In short: as §1

Row | Cell Line | relative viability (BGJ398 + Luminespib; first compound 0.01 µM) | relative viability (BGJ398 + Luminespib; first compound 0.03162 µM) | relative viability (BGJ398 + Luminespib; first compound 0.1 µM) | relative viability (BGJ398 + Luminespib; first compound 0.3162 µM) | relative viability (BGJ398 + Luminespib; first compound 1 µM) | relative viability ([1]; first compound 0.02 µM) | relative viability ([1]; first compound 0.06325 µM) | relative viability ([1]; first compound 0.2 µM) | relative viability ([1]; first compound 0.6325 µM) | relative viability ([1]; first compound 2 µM) | relative viability (BGJ398 + Olaparib; first compound 0.01 µM) | relative viability (BGJ398 + Olaparib; first compound 0.03162 µM) | relative viability (BGJ398 + Olaparib; first compound 0.1 µM) | relative viability (BGJ398 + Olaparib; first compound 0.3162 µM) | relative viability (BGJ398 + Olaparib; first compound 1 µM) | relative viability (BGJ398 + Tozasertib; first compound 0.01 µM) | relative viability (BGJ398 + Tozasertib; first compound 0.03162 µM) | relative viability (BGJ398 + Tozasertib; first compound 0.1 µM) | relative viability (BGJ398 + Tozasertib; first compound 0.3162 µM) | relative viability (BGJ398 + Tozasertib; first compound 1 µM)
1 | NCI-H1993 | 0.962 | 0.916 | 1.08 | 0.954 | 0.737 | 0.734 | 0.843 | 1.08 | 0.767 | 0.008 | 1.02 | 1.08 | 1.01 | 1.02 | 0.997 | 0.526 | 0.546 | 0.651 | 0.581 | 0.616
2 | NCI-H322M | 0.887 | 0.744 | 0.848 | 0.788 | 0.85 | 0.893 | 0.852 | 0.905 | 0.891 | 0.744 | 0.801 | 0.73 | 0.761 | 0.758 | 0.815 | 0.479 | 0.462 | 0.461 | 0.525 | 0.521
3 | NCI-H838 | 0.299 | 0.302 | 0.272 | 0.253 | 0.234 | 0.674 | 0.702 | 0.762 | 0.686 | 0.579 | 0.731 | 0.754 | 0.749 | 0.741 | 0.667 | 0.317 | 0.305 | 0.262 | 0.234 | 0.201
4 | HARA | 0.652 | 0.862 | 0.682 | 0.374 | 0.679 | 0.548 | 0.463 | 0.522 | 0.487 | 0.406 | 0.983 | 0.651 | 0.875 | 0.902 | 0.722 | 0.0926 | 0.116 | 0.0915 | 0.0847 | 0.0857
5 | NCI-H2087 | 0.177 | 0.186 | 0.173 | 0.203 | 0.133 | 0.536 | 0.742 | 0.58 | 0.646 | 0.469 | 0.46 | 0.744 | 0.574 | 0.609 | 0.613 | 0.219 | 0.255 | 0.24 | 0.26 | 0.277
6 | NCI-H1437 | 1.18 | 1.19 | 1.05 | 1.12 | 1.11 | 0.728 | 0.874 | 0.815 | 0.811 | 0.815 | 0.687 | 0.629 | 0.587 | 0.607 | 0.666 | 0.414 | 0.418 | 0.418 | 0.4 | 0.427
7 | NCI-H2342 | 0.732 | 0.701 | 0.96 | 0.754 | 0.746 | 0.677 | 0.781 | 0.799 | 0.731 | 0.636 | 0.517 | 0.46 | 0.541 | 0.482 | 0.444 | 0.415 | 0.49 | 0.655 | 0.536 | 0.505
8 | ChaGo-K-1 | 0.595 | 0.673 | 0.724 | 0.577 | 0.651 | 0.742 | 0.544 | 0.756 | 0.662 | 0.652 | 0.42 | 0.423 | 0.437 | 0.387 | 0.434 | 0.229 | 0.24 | 0.19 | 0.215 | 0.226
9 | NCI-H650 | 0.803 | 0.913 | 0.784 | 0.84 | 0.98 | 0.465 | 0.377 | 0.434 | 0.42 | 0.254 | 0.358 | 0.413 | 0.377 | 0.375 | 0.365 | 0.681 | 0.809 | 0.802 | 0.785 | 0.75
10 | COR-L23 | 0.745 | 0.731 | 0.598 | 0.799 | 0.789 | 0.39 | 0.486 | 0.471 | 0.408 | 0.345 | 0.337 | 0.337 | 0.308 | 0.337 | 0.313 | 0.216 | 0.248 | 0.205 | 0.188 | 0.182
11 | COR-L 105 | 0.69 | 0.972 | 0.832 | 0.93 | 0.801 | 0.694 | 0.872 | 0.697 | 0.605 | 0.835 | 0.627 | 0.647 | 0.687 | 0.733 | 0.639 | 0.291 | 0.346 | 0.339 | 0.418 | 0.324
12 | LK-2 | 0.18 | 0.16 | 0.169 | 0.177 | 0.172 | 0.245 | 0.353 | 0.37 | 0.213 | 0.169 | 0.624 | 0.532 | 0.374 | 0.186 | 0.227 | 0.202 | 0.168 | 0.157 | 0.149 | 0.173
13 | 201T | 1.24 | 0.976 | 1.07 | 1.04 | 0.979 | 0.763 | 0.949 | 0.985 | 0.898 | 0.723 | 0.907 | 0.791 | 0.858 | 0.822 | 0.843 | 1.05 | 0.877 | 0.965 | 0.914 | 0.91
